Data published in ChEMBL document CHEMBL4819010, “Design, synthesis, and biological studies of novel 3-benzamidobenzoic acid derivatives as farnesoid X receptor partial agonist” (Eur J Med Chem, 2021).
Calls of active or inactive are those of the source. No cut-off for these calls is given here.

Key:
Bile acid receptor = biological target: T1, Bile acid receptor (Homo sapiens, UniProt Q96RI1); test: Agonist activity at FXR-LBD (unknown origin) assessed by ligand binding ability incubated for 3 hrs in absence of light measured by TR-FRET Coactivator assay
T1 sequence (Q96RI1 whole entry): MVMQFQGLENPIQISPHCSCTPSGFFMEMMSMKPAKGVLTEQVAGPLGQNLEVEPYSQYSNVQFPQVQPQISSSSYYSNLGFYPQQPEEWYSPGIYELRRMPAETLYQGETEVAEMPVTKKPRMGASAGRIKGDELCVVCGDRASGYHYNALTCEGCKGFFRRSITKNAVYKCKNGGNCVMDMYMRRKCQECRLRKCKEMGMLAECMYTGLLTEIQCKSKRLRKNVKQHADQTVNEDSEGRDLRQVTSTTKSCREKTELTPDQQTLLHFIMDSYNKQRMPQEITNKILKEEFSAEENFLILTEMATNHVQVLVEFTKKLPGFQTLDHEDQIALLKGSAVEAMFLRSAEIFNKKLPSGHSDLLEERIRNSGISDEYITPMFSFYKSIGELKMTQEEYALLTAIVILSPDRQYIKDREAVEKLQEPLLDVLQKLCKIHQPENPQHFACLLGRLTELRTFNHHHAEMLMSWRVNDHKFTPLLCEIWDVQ

[1] = biological target: T2, Bile acid receptor (Mus musculus) (UniProt Q60641); test: In vivo agonist activity at FXR in C57BL/6 mouse assessed as decrease of CYP7A1 mRNA expression at 30 mg/kg, bid ip measured after 5 days by RT-PCR method; assay type: functional, organism-based; conditions: time 5.0 day
T2 sequence (whole entry): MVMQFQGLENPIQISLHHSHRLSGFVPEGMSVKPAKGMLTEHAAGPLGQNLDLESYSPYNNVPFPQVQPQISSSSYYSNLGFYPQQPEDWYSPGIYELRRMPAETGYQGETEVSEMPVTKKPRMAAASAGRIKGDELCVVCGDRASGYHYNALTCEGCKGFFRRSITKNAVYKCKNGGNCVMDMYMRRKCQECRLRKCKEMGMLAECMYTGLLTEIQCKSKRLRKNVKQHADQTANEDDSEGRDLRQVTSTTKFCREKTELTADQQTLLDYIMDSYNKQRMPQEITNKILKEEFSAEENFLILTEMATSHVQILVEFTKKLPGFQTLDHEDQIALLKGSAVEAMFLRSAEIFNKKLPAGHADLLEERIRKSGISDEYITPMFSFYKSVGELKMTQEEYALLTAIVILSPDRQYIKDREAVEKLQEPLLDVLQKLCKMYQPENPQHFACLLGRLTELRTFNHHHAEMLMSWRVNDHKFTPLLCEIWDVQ

Mus musculus [2] = test: Hepatoprotective activity in APAP-induced C57BL/6 mouse liver injury model assessed as decrease in hepatic degeneration at 30 mg/kg, bid oral gavage for 5 days measured after 12 hrs of APAP injection; assay type: functional, organism-based; conditions: time 5.0 day
Mus musculus [3] = test: Hepatoprotective activity in APAP-induced C57BL/6 mouse liver injury model assessed as increase in Gpx1 mRNA expression at 30 mg/kg, bid oral gavage measured after 5 days by qRT-PCR method; assay type: functional, organism-based; conditions: time 5.0 day
Mus musculus [4] = test: Hepatoprotective activity in APAP-induced C57BL/6 mouse liver injury model assessed as increase in SOD1 mRNA expression at 30 mg/kg, bid oral gavage measured after 5 days by qRT-PCR method; assay type: functional, organism-based; conditions: time 5.0 day
[5] = biological target: T2, Bile acid receptor (Mus musculus); test: In vivo agonist activity at FXR in C57BL/6 mouse assessed as upregulation of OST beta mRNA expression at 30 mg/kg, bid ip measured after 5 days by RT-PCR method; assay type: functional, organism-based; conditions: time 5.0 day
Mus musculus [6] = test: Hepatoprotective activity in APAP-induced C57BL/6 mouse liver injury model assessed as decrease in hepatic haemorrhage at 30 mg/kg, bid oral gavage for 5 days measured after 12 hrs of APAP injection; assay type: functional, organism-based; conditions: time 5.0 day
Mus musculus [7] = test: Hepatoprotective activity in APAP-induced C57BL/6 mouse liver injury model assessed as increase in GSH levels at 30 mg/kg, bid oral gavage measured after 5 days; assay type: functional, organism-based; conditions: time 5.0 day
[8] = biological target: T2, Bile acid receptor (Mus musculus); test: In vivo agonist activity at FXR in C57BL/6 mouse assessed as upregulation of IBABP mRNA expression at 30 mg/kg, bid ip measured after 5 days by RT-PCR method; assay type: functional, organism-based; conditions: time 5.0 day
[9] = biological target: T2, Bile acid receptor (Mus musculus); test: In vivo agonist activity at FXR in C57BL/6 mouse assessed as increase of BSEP mRNA expression at 30 mg/kg, bid ip measured after 5 days by RT-PCR method; assay type: functional, organism-based; conditions: time 5.0 day
[10] = biological target: T2, Bile acid receptor (Mus musculus); test: In vivo agonist activity at FXR in C57BL/6 mouse assessed as increase of UGT1A1 mRNA expression at 30 mg/kg, bid ip measured after 5 days by RT-PCR method; assay type: functional, organism-based; conditions: time 5.0 day
Mus musculus [11] = test: Hepatoprotective activity in APAP-induced C57BL/6 mouse liver injury model assessed as decrease in serum AST levels at 30 mg/kg, bid oral gavage measured after 5 days; assay type: functional, organism-based; conditions: time 5.0 day
HepG2 = test: Agonist activity at FXR (unknown origin)/human RXR heterodimer expressing in human HepG2 cells co-expressing pCMV gal assessed luciferase activity measured after 24 hrs by cell based luciferase transactivation assay relative to […]; conditions: dose 3.0 µM
Mus musculus [12] = test: Hepatoprotective activity in APAP-induced C57BL/6 mouse liver injury model assessed as increase in SOD2 mRNA expression at 30 mg/kg, bid oral gavage measured after 5 days by qRT-PCR method; assay type: functional, organism-based; conditions: time 5.0 day
[13] = biological target: T2, Bile acid receptor (Mus musculus); test: In vivo agonist activity at FXR in C57BL/6 mouse assessed as upregulation of SHP mRNA expression at 30 mg/kg, bid ip measured after 5 days by RT-PCR method; assay type: functional, organism-based; conditions: time 5.0 day
Mus musculus [14] = test: Hepatoprotective activity in APAP-induced C57BL/6 mouse liver injury model assessed as decrease in serum ALT levels at 30 mg/kg, bid oral gavage measured after 5 days; assay type: functional, organism-based; conditions: time 5.0 day
Mus musculus [15] = test: Hepatoprotective activity in APAP-induced C57BL/6 mouse liver injury model assessed as decrease in […] at 30 mg/kg, bid oral gavage measured after 5 days; assay type: functional, organism-based; conditions: time 5.0 day
[16] = biological target: T2, Bile acid receptor (Mus musculus); test: In vivo agonist activity at FXR in C57BL/6 mouse assessed as inhibition of APAP-induced FXR decline at 30 mg/kg, bid ip measured after 5 days by RT-PCR method; assay type: functional, organism-based; conditions: time 5.0 day
Mus musculus [17] = test: Hepatoprotective activity in APAP-induced C57BL/6 mouse liver injury model assessed as increase in Gclm mRNA expression at 30 mg/kg, bid oral gavage measured after 5 days by qRT-PCR method; assay type: functional, organism-based; conditions: time 5.0 day
Mus musculus [18] = test: Hepatoprotective activity in APAP-induced C57BL/6 mouse liver injury model assessed as increase in catalase mRNA expression at 30 mg/kg, bid oral gavage measured after 5 days by qRT-PCR method; assay type: functional, organism-based; conditions: time 5.0 day
Mus musculus [19] = test: Hepatoprotective activity in APAP-induced C57BL/6 mouse liver injury model assessed as decrease in serum LDH levels at 30 mg/kg, bid oral gavage measured after 5 days; assay type: functional, organism-based; conditions: time 5.0 day
[20] = Agonist activity at FXR (unknown origin)/human RXR heterodimer expressing in human HepG2 cells co-expressing pCMV gal assessed luciferase activity measured after 24 hrs by cell based luciferase transactivation assay; conditions: HepG2, 24 h
Mus musculus [21] = test: Hepatoprotective activity in APAP-induced C57BL/6 mouse liver injury model assessed as decrease in hepatic necrosis at 30 mg/kg, bid oral gavage for 5 days measured after 12 hrs of APAP injection; assay type: functional, organism-based; conditions: time 5.0 day

Compound: O=C(O)c1cccc(NC(=O)c2ccc(OCc3cccc(-c4ccccc4)c3)cc2)c1
- EC50 (Bile acid receptor): 0.319 µM

Compound: CC(C)(Oc1cccc(NC(=O)c2ccc(Oc3ccccc3)cc2)c1)C(=O)O
- EC50 (Bile acid receptor): > 10 µM

Compound: Cc1nc(-c2ccc(C(F)(F)F)cc2)sc1C(=O)Nc1cccc(C(=O)O)c1
- EC50 (Bile acid receptor): 0.315 µM

Compound: CC(C)CCOc1ccc(C(=O)Nc2cccc(C(=O)O)c2)cc1
- EC50 (Bile acid receptor): 0.215 µM

Compound: COc1cccc(C(=O)Nc2cccc(C(=O)O)c2)c1
- EC50 (Bile acid receptor): 1.03 µM

Compound: CCCCOc1cccc(-c2cccc(C(=O)Nc3cccc(C(=O)O)c3)c2)c1
- EC50 (Bile acid receptor): 0.256 µM

Compound: CCCCOc1ccc(C(=O)Nc2cccc(C(=O)O)c2)cc1
- EC50 (Bile acid receptor): 0.105 µM

Compound: COc1ccccc1C(=O)Nc1cccc(C(=O)O)c1
- EC50 (Bile acid receptor): > 10 µM

Compound: Cc1ccc(COc2cccc(C(=O)Nc3cccc(C(=O)O)c3)c2)cc1
- EC50 (Bile acid receptor): 1.42 µM

Compound: O=C(O)c1ccc(NC(=O)c2ccc(Oc3ccccc3)cc2)cc1
- EC50 (Bile acid receptor): > 10 µM

Compound: COc1ccccc1C(=O)Nc1ccc(C)c(C(=O)O)c1
- EC50 (Bile acid receptor): > 10 µM

Compound: O=C(O)c1cccc(OCc2ccc(Oc3ccccc3)cc2)c1
- EC50 (Bile acid receptor): > 10 µM

Compound: CC(C)CCOc1cccc(C(=O)Nc2cccc(C(=O)O)c2)c1
- EC50 (Bile acid receptor): 2.76 µM

Compound: Cc1cccc(COc2ccc(C(=O)Nc3cccc(C(=O)O)c3)cc2)c1
- EC50 (Bile acid receptor): 0.259 µM

Compound: O=C(O)c1cccc(NC(=O)c2cccc(OCC3CC3)c2)c1
- EC50 (Bile acid receptor): 1.26 µM

Compound: O=C(O)c1cccc(NC(=O)c2cccc(OCc3ccccc3)c2)c1
- EC50 (Bile acid receptor): 1.16 µM

Compound: CCOc1cccc(C(=O)Nc2cccc(C(=O)O)c2)c1
- EC50 (Bile acid receptor): 2.35 µM

Compound: Cc1ccc(NC(=O)c2ccc(Oc3ccccc3)cc2)cc1C(=O)O
- EC50 (Bile acid receptor): 0.127 µM

Compound: O=C(O)c1cccc(NC(=O)c2ccc(OCc3ccccc3)cc2)c1
- EC50 (Bile acid receptor): 0.135 µM

Compound: CCCCCOc1cccc(C(=O)Nc2cccc(C(=O)O)c2)c1
- EC50 (Bile acid receptor): 2.54 µM

Compound: O=C(O)c1cccc(NC(=O)c2nc(-c3ccccc3)cs2)c1
- EC50 (Bile acid receptor): 2.88 µM

Compound: O=C(O)c1cccc(NC(=O)c2cccc(-c3ccccc3)c2)c1
- Activity [1]: Active
- Activity (Mus musculus [2]): Active
- Activity (Mus musculus [3]): Active
- Activity (Mus musculus [4]): Active
- Activity [5]: Active
- Activity (Mus musculus [6]): Active
- Activity (Mus musculus [7]): Active
- Activity [8]: Active
- Activity [9]: Active
- Activity [10]: Active
- Activity (Mus musculus [11]): Active
- Activity (HepG2): 28.6%
- EC50 (Bile acid receptor): 0.025 µM
- Activity (Mus musculus [12]): Active
- Activity [13]: Active
- Activity (Mus musculus [14]): Active
- Activity (Mus musculus [15]): Active
- Activity [16]: Active
- Activity (Mus musculus [17]): Active
- Activity (Mus musculus [18]): Active
- Activity (Mus musculus [19]): Active
- EC50 [20]: 0.196 µM
- Activity (Mus musculus [21]): Active

Compound: CO/N=C(/COc1ccc(C(=O)Nc2cccc(C(=O)O)c2)cc1)c1ccccc1
- EC50 (Bile acid receptor): > 10 µM

Compound: O=C(O)c1ccc(OCc2ccc(OCc3c(-c4c(Cl)cccc4Cl)noc3C3CC3)cc2)cc1
- Activity (Mus musculus [2]): Active
- Activity (Mus musculus [6]): Active
- Activity (Mus musculus [11]): Active
- EC50 (Bile acid receptor): 0.265 µM
- Activity (Mus musculus [14]): Active
- Activity (Mus musculus [19]): Active
- Activity (Mus musculus [21]): Active

Compound: COc1ccc(C(=O)Nc2cccc(C(=O)O)c2)cc1
- EC50 (Bile acid receptor): 0.607 µM

Compound: O=C(Nc1ccccc1C(=O)O)c1ccc(Oc2ccccc2)cc1
- EC50 (Bile acid receptor): > 10 µM

Compound: O=C(O)c1cccc(NC(=O)c2ccc(-c3ccccc3)cc2)c1
- EC50 (Bile acid receptor): > 10 µM

Compound: Cc1cc(C(=O)Nc2cccc(C(=O)O)c2)nn1-c1ccccc1
- EC50 (Bile acid receptor): > 10 µM

Compound: CC(Oc1cccc(NC(=O)c2ccc(Oc3ccccc3)cc2)c1)C(=O)O (stereo not given)
- EC50 (Bile acid receptor): > 10 µM

Compound: Cc1ccccc1-c1cccc(COc2ccc(C(=O)Nc3cccc(C(=O)O)c3)cc2)c1
- EC50 (Bile acid receptor): 1.02 µM

Compound: CCCOc1cccc(C(=O)Nc2cccc(C(=O)O)c2)c1
- EC50 (Bile acid receptor): 2.15 µM

Compound: O=C(O)COc1cccc(NC(=O)c2ccc(Oc3ccccc3)cc2)c1
- EC50 (Bile acid receptor): > 10 µM

Compound: O=C(O)c1cccc(NC(=O)c2csc(-c3ccc(C(F)(F)F)cc3)n2)c1
- EC50 (Bile acid receptor): 1.69 µM

Compound: O=C(O)c1cccc(NC(=O)c2ccc(Oc3ccccc3)cc2)c1
- Activity (Mus musculus [2]): Active
- Activity (Mus musculus [6]): Active
- Activity (Mus musculus [11]): Active
- Activity (HepG2): 21.2%
- EC50 (Bile acid receptor): 0.097 µM
- Activity (Mus musculus [14]): Active
- Activity (Mus musculus [19]): Active
- EC50 [20]: 0.463 µM
- Activity (Mus musculus [21]): Active

Compound: Cc1cccc(COc2cccc(C(=O)Nc3cccc(C(=O)O)c3)c2)c1
- EC50 (Bile acid receptor): 1.86 µM

Compound: Cc1ccccc1-c1cccc(C(=O)Nc2cccc(C(=O)O)c2)c1
- Activity (HepG2): 23.1%
- EC50 (Bile acid receptor): 0.068 µM
- EC50 [20]: 0.385 µM

Compound: Cc1ccc(NC(=O)c2cccc(C(=O)O)c2)cc1
- EC50 (Bile acid receptor): > 10 µM
